Data as given in US4001223A, “Adamantane-piperazine derivatives” (Idemitsu Kosan Co., Ltd., priority 1975, dated 1977).
Entries after “also recorded” stand apart in the source; their conditions may differ. One block for each compound: values may come before it.

Tests used:
Hypotensive action = type: in vivo; settings: for dose showing hypotensive action: in vivo
[1] = Stability in aqueous solution of tartaric acid; type: physicochemical
Procedure: After heating a 0.25 weight percent aqueous solution of the new compound N-(1-adamantyl methyl)-N'-cinnamyl piperazine prepared by using 2 times mol of tartaric acid based on 1 mol of this compound, the solution was allowed to cool to a room temperature (about 20° C). Then, the pH value was adjusted to 8-9 with 1/10 N aqueous solution of sodium hydroxide.

[2] = tested on: Small intestine excised from guinea-pigs; experiment: Inhibition of histamine-induced contraction of isolated smooth muscle (small intestine excised from guinea-pigs); settings: contracting substance Histamine 1.00×10^-7 g/ml; effective concentration 1×10^-4 g/ml
[3] = Solubility in aqueous solution of tartaric acid (aptitude test as an injection); type: physicochemical; settings: 0.25 weight percent
Procedure: For the purpose of examining the solubility of the new compound N-(1-adamantyl methyl)-N'-cinnamyl piperazine in an aqueous solution of tartaric acid, the aqueous solutions in which 2, 4, 6 and 8 times molar of tartaric acid based on 1 mol of the new compound were contained were prepared and the compound was added so that its concentration should be 0.25 weight percent to each aqueous solution. Each aqueous solution was heated to 80° C and allowed to cool to a room temperature (about 20° C), then the solubility was evaluated. […] In addition, the pH value of 0.25 weight percent aqueous solution of the compound prepared by using 2 times mol of tartaric acid based on 1 molar of the compound was 3.10 and when an alkali was added to the aqueous solution, crystals began to separate at pH 3.80.

[4] = Effect on muscular blood flow in cats; type: in vivo; settings: cats weighing about 3 kg
Text: (§1) The action on cerebral blood flow and muscular blood flow was examined with cats weighing about 3 kg.

[5] = tested on: Small intestine excised from guinea-pigs; experiment: Inhibition of acetylcholine-induced contraction of isolated smooth muscle (small intestine excised from guinea-pigs); settings: contracting substance Acethylcholine 5.43×10^-4 g/ml; effective concentration 8.75×10^-6 g/ml
in vivo = settings: for LD50: mouse, in vivo
[6] = tested on: Small intestine excised from guinea-pigs; experiment: Inhibition of BaCl2-induced contraction of isolated smooth muscle (small intestine excised from guinea-pigs); settings: contracting substance BaCl2 2.00×10^-3 g/ml; effective concentration 1×10^-4 g/ml
isolated smooth muscle = experiment: Effect on contraction of isolated smooth muscle, overall; parameters: species or system guinea-pigs
[7] = Effect on cerebral blood flow in cats; type: in vivo; settings: cats weighing about 3 kg
Text: as §1

[8] = tested on: Vessels excised from guinea-pigs; experiment: Inhibition of adrenalin-induced contraction of isolated smooth muscle (vessels excised from guinea-pigs); settings: contracting substance Adrenalin 2.86×10^-6 g/ml; effective concentration 1×10^-5 g/ml
[9] = 0.25 weight percent, 2 times mol tartaric acid, heated, cooled, pH adjusted to 8-9, room temperature for 7 days

dose showing hypotensive action (Hypotensive action): 0.5 mg/kg
SMILES: C(=C\c1ccccc1)/CN1CCN(C(c2ccccc2)c2ccccc2)CC1 [Cinnarizine, reference compound]

SMILES: C(=C\c1ccccc1)/CN1CCN(CC23CC4CC(CC(C4)C2)C3)CC1 [N-(1-adamantylmethyl)-N'-cinnamyl piperazine]
change in infrared absorption spectrum and nuclear magnetic resonance spectrum [1, 9]: No change
stability by thin layer chromatography [1, 9]: unaffected
stability against heat, alkali and acid ([1]; general statement): good stability against heat, alkali and acid; also recorded: high stability against heat, alkali and acid
stability in an aqueous solution of tartaric acid ([1]; overall conclusion): exist stably in an aqueous solution of tartaric acid
Inhibitory rate [2]: 95.0%
pH value of aqueous solution ([3]; 2 times mol of tartaric acid): 3.10
pH at which crystals began to separate ([3]; 2 times mol of tartaric acid, alkali added): 3.80
solubility ([3]; aqueous tartaric acid, 2, 4, 6 and 8 times molar, heated to 80° C, cooled to about 20° C): soluble in all of the above aqueous solutions of tartaric acid
blood flow of gastrocnemius muscle [4]: clearly increased blood flow of gastrocnemius muscle
action on blood flow of gastrocnemius muscle compared with Cinnarizine ([4]; versus Cinnarizine): more significant than that of Cinnarizine
Inhibitory rate [5]: 25.0%
toxicity (in vivo; general statement): low toxicity; also recorded: very low toxicity compared with conventional cerebral vasodilators
LD50 (in vivo; iv): 78.8 mg/kg
LD50 (in vivo; po): > 10000 mg/kg
Inhibitory rate [6]: 77.23%
smooth muscle relaxing action (isolated smooth muscle): recognized to possess smooth muscle relaxing action
side effects such as an excessive hypotension (Hypotensive action; general statement): little side effects such as an excessive hypotension
dose showing hypotensive action (Hypotensive action): > 5 mg/kg
hypotensive action compared with Cinnarizine (Hypotensive action; versus Cinnarizine): clearly weaker than that of Cinnarizine
blood flow of cerebral cortex ([7]; 1 mg/kg): clearly increased blood flow of cerebral cortex
action on blood flow of cerebral cortex compared with Cinnarizine ([7]; versus Cinnarizine 1 mg/kg): more significant than that induced by Cinnarizine
Inhibitory rate [8]: 3.10%
